Our source for the Ki and IC50 values is article PMC5962878, “The Somatostatin Receptor-4 Agonist J-2156 Alleviates Mechanical Hypersensitivity in a Rat Model of Breast Cancer Induced Bone Pain” (Frontiers in Pharmacology, 2018).

Experiment [1] has as its target T1, human somatostatin receptor type 5 (H-SST5) (Homo sapiens, UniProt P35346).
T1 construct: gene SSTR5; stably expressed in CHO-K1, membranes from Perkin Elmer; printed catalogue number ES-522-M400UA is the same as for type 3 (likely misprint)
Put plainly: radioligand competition, CHO-K1 membranes, […]-Tyr3-somatostatin-14. Type of experiment: binding. The note with it: read-out: Mean (±SEM) Ki values (nM) / H-SST5 receptor.

Experiment [2] deals with T2, rat SST4 receptor (R-SST4) (Rattus norvegicus, UniProt P30937).
T2 construct: gene Sstr4; H4 cells for cAMP
Put plainly: LANCE cAMP, inhibition of forskolin-stimulated cAMP, H4 cells. Type of experiment: cell-based. The settings on record: read-out: Mean (±SEM) IC50 values (nM) / R-SST4. A general note: Time-resolved FRET reads energy transfer from a long-lived donor to a nearby acceptor.

Experiment [3] deals with T3, human somatostatin receptor type 3 (H-SST3) (Homo sapiens, UniProt P32745).
T3 construct: gene SSTR3; stably expressed in CHO-K1, membranes from Perkin Elmer
Put plainly: radioligand competition, CHO-K1 membranes, […]-Tyr3-somatostatin-14. The note with it: read-out: Mean (±SEM) Ki values (nM) / H-SST3 receptor. Type of experiment: binding.

The target of experiment [4] is T4, human somatostatin receptor type 1 (H-SST1) (Homo sapiens, UniProt P30872).
T4 construct: gene SSTR1; stably expressed in CHO-K1, membranes from Perkin Elmer
The experiment is described as above. Type of experiment: binding. The settings on record: read-out: Mean (±SEM) Ki values (nM) / H-SST1 receptor.

Experiment [5] deals with T5, human SST4 receptor (H-SST4) (Homo sapiens, UniProt P31391).
T5 construct: gene SSTR4; H4 cells (Perkin Elmer) for cAMP
The experiment is described as above. In kind it is binding. The note with it: read-out: Mean (±SEM) Ki values (nM) / H-SST4 receptor.

In experiment [6] the target is T6, human somatostatin receptor type 2 (H-SST2) (Homo sapiens, UniProt P30874).
T6 construct: gene SSTR2; stably expressed in CHO-K1, membranes from Perkin Elmer
Described as above. Type of experiment: binding. The note with it: read-out: Mean (±SEM) Ki values (nM) / H-SST2 receptor.

Experiment [7] deals with T5, human SST4 receptor (H-SST4). Put plainly: LANCE cAMP, inhibition of forskolin-stimulated cAMP, H4 cells. Type of experiment: cell-based. The note with it: read-out: Mean (±SEM) IC50 values (nM) / H-SST4.
Experiment [8] addresses T2, rat SST4 receptor (R-SST4). Put plainly: radioligand competition, CHO-K1 membranes, […]-Tyr3-somatostatin-14. Type of experiment: binding. The note with it: read-out: Mean (±SEM) Ki values (nM) / R-SST4 receptor. A general note: In a radioligand displacement assay an active substance lowers the binding of a labelled ligand.

T5 sequence (P31391 whole entry): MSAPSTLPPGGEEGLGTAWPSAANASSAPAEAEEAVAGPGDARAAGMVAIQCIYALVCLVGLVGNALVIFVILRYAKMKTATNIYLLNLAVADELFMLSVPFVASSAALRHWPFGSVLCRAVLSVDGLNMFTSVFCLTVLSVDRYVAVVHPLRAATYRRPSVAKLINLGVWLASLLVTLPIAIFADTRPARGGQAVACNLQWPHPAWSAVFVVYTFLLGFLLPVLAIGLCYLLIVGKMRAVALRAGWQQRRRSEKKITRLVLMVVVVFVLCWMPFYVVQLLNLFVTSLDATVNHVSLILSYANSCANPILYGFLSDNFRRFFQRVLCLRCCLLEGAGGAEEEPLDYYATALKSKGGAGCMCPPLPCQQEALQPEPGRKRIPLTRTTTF
T2 sequence (P30937 whole entry): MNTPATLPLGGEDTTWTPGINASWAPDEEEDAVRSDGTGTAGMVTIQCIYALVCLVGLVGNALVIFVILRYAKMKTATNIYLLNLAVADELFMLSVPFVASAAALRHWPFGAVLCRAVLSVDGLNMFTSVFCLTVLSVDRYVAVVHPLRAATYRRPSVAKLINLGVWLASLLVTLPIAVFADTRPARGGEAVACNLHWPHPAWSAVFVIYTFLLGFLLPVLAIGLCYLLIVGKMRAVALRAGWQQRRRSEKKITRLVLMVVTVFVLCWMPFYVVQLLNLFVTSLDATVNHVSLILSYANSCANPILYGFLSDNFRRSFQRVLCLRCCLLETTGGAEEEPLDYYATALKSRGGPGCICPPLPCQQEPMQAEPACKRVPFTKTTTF
T1 sequence (P35346 whole entry): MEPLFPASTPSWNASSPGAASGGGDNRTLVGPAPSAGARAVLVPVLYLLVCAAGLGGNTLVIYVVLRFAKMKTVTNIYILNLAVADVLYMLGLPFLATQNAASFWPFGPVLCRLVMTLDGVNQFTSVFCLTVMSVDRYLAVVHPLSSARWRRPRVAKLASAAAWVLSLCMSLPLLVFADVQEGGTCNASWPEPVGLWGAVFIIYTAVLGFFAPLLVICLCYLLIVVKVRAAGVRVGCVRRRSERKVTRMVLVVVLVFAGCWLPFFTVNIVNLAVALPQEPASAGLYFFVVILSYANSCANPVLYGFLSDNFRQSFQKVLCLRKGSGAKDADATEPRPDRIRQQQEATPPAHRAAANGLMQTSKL
T6 sequence (P30874 whole entry): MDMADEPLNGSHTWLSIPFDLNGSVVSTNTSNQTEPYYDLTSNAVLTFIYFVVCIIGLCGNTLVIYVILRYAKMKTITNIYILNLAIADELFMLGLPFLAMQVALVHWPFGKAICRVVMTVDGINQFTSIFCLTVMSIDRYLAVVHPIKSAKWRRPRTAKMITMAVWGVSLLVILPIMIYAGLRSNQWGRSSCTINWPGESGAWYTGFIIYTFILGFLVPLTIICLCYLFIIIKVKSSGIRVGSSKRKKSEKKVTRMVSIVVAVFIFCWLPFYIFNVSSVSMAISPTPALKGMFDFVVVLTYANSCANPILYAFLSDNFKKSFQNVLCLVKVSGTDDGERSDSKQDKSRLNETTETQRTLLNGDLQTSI
T4 sequence (P30872 whole entry): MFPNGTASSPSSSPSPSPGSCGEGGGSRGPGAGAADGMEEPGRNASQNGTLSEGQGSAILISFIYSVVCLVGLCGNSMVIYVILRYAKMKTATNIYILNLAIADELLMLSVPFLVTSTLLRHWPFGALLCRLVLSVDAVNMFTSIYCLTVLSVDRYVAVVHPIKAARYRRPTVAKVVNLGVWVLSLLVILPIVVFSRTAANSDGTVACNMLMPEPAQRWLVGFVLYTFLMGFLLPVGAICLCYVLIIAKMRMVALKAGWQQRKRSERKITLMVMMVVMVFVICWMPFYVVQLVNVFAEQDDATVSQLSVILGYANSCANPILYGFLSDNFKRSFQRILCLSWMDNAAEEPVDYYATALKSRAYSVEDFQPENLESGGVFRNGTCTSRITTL
T3 sequence (P32745 whole entry): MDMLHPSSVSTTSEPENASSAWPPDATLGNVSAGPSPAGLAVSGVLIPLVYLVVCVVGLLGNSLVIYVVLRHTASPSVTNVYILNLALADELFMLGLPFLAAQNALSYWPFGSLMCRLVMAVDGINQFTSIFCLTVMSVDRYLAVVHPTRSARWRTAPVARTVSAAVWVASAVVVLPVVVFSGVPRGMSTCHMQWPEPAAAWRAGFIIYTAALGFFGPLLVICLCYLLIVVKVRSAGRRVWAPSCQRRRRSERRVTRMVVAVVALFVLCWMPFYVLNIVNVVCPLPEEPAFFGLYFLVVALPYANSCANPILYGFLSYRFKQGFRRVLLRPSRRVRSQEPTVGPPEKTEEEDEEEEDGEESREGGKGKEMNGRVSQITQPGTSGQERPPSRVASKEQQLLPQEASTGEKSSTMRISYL

Take `Cc1ccc(S(=O)(=O)N[C@@H](CCN)C(=O)N[C@@H](Cc2ccccc2)C(N)=O)c2ccccc12` [J-2156, (1′S,2S)-4amino-N-(1′-carbamoyl-2′-phenylethyl)-2-(4″-methyl-1″-naphthalenesulfonylamino)butanamide]: the Ki in experiment [1] came to 468 ± 156 nM; in experiment [3] it was 234 ± 112 nM; in experiment [4], 589 ± 266 nM; in experiment [5], 0.56 ± 0.1 nM; in experiment [6], 25100 nM; in experiment [8], 0.89 ± 0.64 nM. The IC50 was determined as 0.07 ± 0.005 nM in experiment [2] and 0.05 ± 0.01 nM in experiment [7].
